Holding throughout (assay): relative viability (nuclei count vs DMSO), 5 days (fraction); higher = more cells survive
Compound in the experiment “Zosuquidar + Pictilisib”: O[C@@H](COc1cccc2ncccc12)CN1CCN([C@@H]2c3ccccc3[C@@H]3[C@H](c4ccccc42)C3(F)F)CC1 [Zosuquidar] + CS(=O)(=O)N1CCN(Cc2cc3nc(-c4cccc5[nH]ncc45)nc(N4CCOCC4)c3s2)CC1 [Pictilisib] (partner 1 µM)
Summed up: (§1)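 One day after seeding in 1536-well plates, lung cancer cell lines were dosed by pin tool. Dosing was either single-drug or a fixed anchor-drug dose plus five library-drug doses (not always all listed) in √10 steps. After 5 days, nuclei were stained in one fix-and-stain step and counted on 4× images, and relative viability is the nuclei count of treated wells over that of vehicle wells, given as the median of duplicate plates.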

Compound in the experiment “Zosuquidar + Vorinostat”: O[C@@H](COc1cccc2ncccc12)CN1CCN([C@@H]2c3ccccc3[C@@H]3[C@H](c4ccccc42)C3(F)F)CC1 [Zosuquidar] + O=C(CCCCCCC(=O)Nc1ccccc1)NO [Vorinostat] (partner 1 µM)
An outline of the steps:
as §1

Compound in experiment [1]: COc1cc2nccc(Oc3ccc(NC(=O)C4(C(=O)Nc5ccc(F)cc5)CC4)cc3)c2cc1OC [Cabozantinib] + O=C(CCCCCCC(=O)Nc1ccccc1)NO [Vorinostat] (partner 1 µM)
An outline of the steps: as §1

Compound in the experiment “Kobe2602 + Luminespib”: C1=CC(=CC=C1NC(=S)NNC2=C(C=C(C=C2[N+](=O)[O-])C(F)(F)F)[N+](=O)[O-])F [Kobe2602] + CCNC(=O)c1noc(-c2cc(C(C)C)c(O)cc2O)c1-c1ccc(CN2CCOCC2)cc1 [Luminespib] (partner 0.01 µM)
An outline of the steps: as §1

On to Calu-6, for which the relative viability with Zosuquidar + Pictilisib (first compound 0.01 µM) amounted to 0.855; in the experiment with Zosuquidar + Pictilisib (first compound 0.03162 µM) it was 0.942; with Zosuquidar + Pictilisib (first compound 0.1 µM) it was 1.02; in the experiment with Zosuquidar + Pictilisib (first compound 0.3162 µM), 0.976; with Zosuquidar + Pictilisib (first compound 1 µM) it was 0.918.
For EBC-1 the same measures were 0.41, 0.52, 0.395, 0.458 and 0.377.
Take HCC-78: the relative viability with Zosuquidar + Pictilisib (first compound 0.01 µM) was determined as 0.211; with Zosuquidar + Pictilisib (first compound 0.03162 µM) it was 0.235; in the experiment with Zosuquidar + Pictilisib (first compound 0.3162 µM), 0.232; in the experiment with Zosuquidar + Pictilisib (first compound 1 µM), 0.402; in the experiment with Zosuquidar + Vorinostat (first compound 0.01 µM), 0.465; in the experiment with Zosuquidar + Vorinostat (first compound 0.3162 µM), 0.512. In addition, the relative viability with Zosuquidar + Vorinostat (first compound 1 µM) was 0.402; in experiment [1] (first compound 0.06325 µM), 0.415; in experiment [1] (first compound 0.2 µM) it was 0.394; in experiment [1] (first compound 0.6325 µM), 0.344; in experiment [1] (first compound 2 µM), 0.295.
Turning to HCC-366, the relative viability with Zosuquidar + Pictilisib (first compound 0.01 µM) was 0.154; in the experiment with Zosuquidar + Pictilisib (first compound 0.03162 µM), 0.185; in the experiment with Zosuquidar + Pictilisib (first compound 0.1 µM) it was 0.15; with Zosuquidar + Pictilisib (first compound 0.3162 µM), 0.151; with Zosuquidar + Pictilisib (first compound 1 µM), 0.195; with Zosuquidar + Vorinostat (first compound 0.01 µM), 0.309. Besides, the relative viability in the experiment with Zosuquidar + Vorinostat (first compound 0.03162 µM) came out at 0.424; in the experiment with Zosuquidar + Vorinostat (first compound 0.1 µM) it was 0.342; with Zosuquidar + Vorinostat (first compound 0.3162 µM), 0.897; with Zosuquidar + Vorinostat (first compound 1 µM) it was 0.352; in experiment [1] (first compound 0.02 µM), 0.309; in experiment [1] (first compound 0.06325 µM) it was 0.381. In addition, the relative viability in experiment [1] (first compound 0.2 µM) was found to be 0.374; in experiment [1] (first compound 0.6325 µM) it was 0.378; in experiment [1] (first compound 2 µM), 0.429.
Take IA-LM: the relative viability with Zosuquidar + Pictilisib (first compound 0.01 µM) was 0.306; in the experiment with Zosuquidar + Pictilisib (first compound 0.03162 µM) it was 0.394; with Zosuquidar + Pictilisib (first compound 0.1 µM), 0.342; with Zosuquidar + Pictilisib (first compound 0.3162 µM), 0.315; with Zosuquidar + Pictilisib (first compound 1 µM), 0.324; in the experiment with Zosuquidar + Vorinostat (first compound 0.01 µM), 1.07. Also, the relative viability with Zosuquidar + Vorinostat (first compound 0.03162 µM) amounted to 0.967; with Zosuquidar + Vorinostat (first compound 0.3162 µM), 1.07; in the experiment with Zosuquidar + Vorinostat (first compound 1 µM), 1.04; in experiment [1] (first compound 0.02 µM), 0.995; in experiment [1] (first compound 0.06325 µM), 1.18; in experiment [1] (first compound 0.2 µM), 1. In addition, the relative viability in experiment [1] (first compound 0.6325 µM) was found to be 0.946; in experiment [1] (first compound 2 µM), 1.2.
Regarding NCI-H522, the relative viability with Zosuquidar + Vorinostat (first compound 0.01 µM) came to 0.909; with Zosuquidar + Vorinostat (first compound 0.03162 µM), 0.796; in the experiment with Zosuquidar + Vorinostat (first compound 0.1 µM), 0.927; with Zosuquidar + Vorinostat (first compound 0.3162 µM), 0.887; with Zosuquidar + Vorinostat (first compound 1 µM) it was 0.871; in experiment [1] (first compound 0.02 µM), 0.737. The relative viability worked out at 1.01 in experiment [1] (first compound 0.06325 µM); 1.03 in experiment [1] (first compound 0.2 µM); 0.902 in experiment [1] (first compound 0.6325 µM); 0.902 in experiment [1] (first compound 2 µM); 1.08 with Kobe2602 + Luminespib (first compound 0.2 µM); 1.25 in the experiment with Kobe2602 + Luminespib (first compound 0.6325 µM). Moreover, the relative viability was 1.31 with Kobe2602 + Luminespib (first compound 2 µM), 1.09 with Kobe2602 + Luminespib (first compound 6.325 µM) and 1.03 with Kobe2602 + Luminespib (first compound 20 µM).
For the cell line NCI-H1299, the relative viability in the experiment with Zosuquidar + Pictilisib (first compound 0.01 µM) amounted to 0.623; with Zosuquidar + Pictilisib (first compound 0.03162 µM) it was 0.836; with Zosuquidar + Pictilisib (first compound 0.1 µM), 0.968; with Zosuquidar + Pictilisib (first compound 0.3162 µM), 0.796; with Zosuquidar + Pictilisib (first compound 1 µM), 0.861.
Turning to NCI-H1563, the relative viability with Zosuquidar + Pictilisib (first compound 0.01 µM) is 0.596; with Zosuquidar + Pictilisib (first compound 0.03162 µM), 0.632; with Zosuquidar + Pictilisib (first compound 0.1 µM) it was 0.622; in the experiment with Zosuquidar + Pictilisib (first compound 0.3162 µM), 0.664; with Zosuquidar + Pictilisib (first compound 1 µM), 0.661; in the experiment with Kobe2602 + Luminespib (first compound 0.2 µM), 0.579. Besides, the relative viability amounted to 0.492 in the experiment with Kobe2602 + Luminespib (first compound 0.6325 µM), 0.52 with Kobe2602 + Luminespib (first compound 2 µM), 0.543 with Kobe2602 + Luminespib (first compound 6.325 µM) and 0.512 with Kobe2602 + Luminespib (first compound 20 µM).
NCI-H1623: the relative viability is 0.578 with Kobe2602 + Luminespib (first compound 0.2 µM); 0.427 with Kobe2602 + Luminespib (first compound 0.6325 µM); 0.571 with Kobe2602 + Luminespib (first compound 2 µM); 0.368 with Kobe2602 + Luminespib (first compound 6.325 µM); 0.491 with Kobe2602 + Luminespib (first compound 20 µM).
With NCI-H1648, the relative viability in the experiment with Zosuquidar + Vorinostat (first compound 0.01 µM) amounted to 0.423; with Zosuquidar + Vorinostat (first compound 0.03162 µM) it was 0.422; with Zosuquidar + Vorinostat (first compound 0.1 µM) it was 0.242; in the experiment with Zosuquidar + Vorinostat (first compound 0.3162 µM), 0.387; in the experiment with Zosuquidar + Vorinostat (first compound 1 µM) it was 0.434; in experiment [1] (first compound 0.02 µM) it was 0.425. In addition, the relative viability in experiment [1] (first compound 0.06325 µM) worked out at 0.589; in experiment [1] (first compound 0.6325 µM), 0.55; in experiment [1] (first compound 2 µM) it was 0.408.
Turning to NCI-H1703, the relative viability amounted to 0.239 in the experiment with Zosuquidar + Pictilisib (first compound 0.01 µM); 0.238 with Zosuquidar + Pictilisib (first compound 0.03162 µM); 0.244 in the experiment with Zosuquidar + Pictilisib (first compound 0.1 µM); 0.233 in the experiment with Zosuquidar + Pictilisib (first compound 0.3162 µM); 0.238 with Zosuquidar + Pictilisib (first compound 1 µM).
As for NCI-H1792, the relative viability was 0.355 in the experiment with Zosuquidar + Pictilisib (first compound 0.01 µM); 0.267 in the experiment with Zosuquidar + Pictilisib (first compound 0.03162 µM); 0.243 in the experiment with Zosuquidar + Pictilisib (first compound 0.1 µM); 0.311 with Zosuquidar + Pictilisib (first compound 0.3162 µM); 0.335 in the experiment with Zosuquidar + Pictilisib (first compound 1 µM); 0.319 in the experiment with Kobe2602 + Luminespib (first compound 0.2 µM). Moreover, the relative viability in the experiment with Kobe2602 + Luminespib (first compound 0.6325 µM) amounted to 0.58; in the experiment with Kobe2602 + Luminespib (first compound 2 µM) it was 0.47; with Kobe2602 + Luminespib (first compound 6.325 µM) it was 0.558; in the experiment with Kobe2602 + Luminespib (first compound 20 µM), 0.517.
For NCI-H2342, the relative viability turned out to be 0.753 with Zosuquidar + Vorinostat (first compound 0.01 µM); 0.807 with Zosuquidar + Vorinostat (first compound 0.03162 µM); 0.686 in the experiment with Zosuquidar + Vorinostat (first compound 0.1 µM); 0.813 in the experiment with Zosuquidar + Vorinostat (first compound 0.3162 µM); 0.81 with Zosuquidar + Vorinostat (first compound 1 µM); 0.735 in experiment [1] (first compound 0.02 µM). In addition, the relative viability turned out to be 0.776 in experiment [1] (first compound 0.06325 µM); 0.697 in experiment [1] (first compound 0.2 µM); 0.798 in experiment [1] (first compound 0.6325 µM); 0.724 in experiment [1] (first compound 2 µM); 0.826 with Kobe2602 + Luminespib (first compound 0.2 µM); 0.735 with Kobe2602 + Luminespib (first compound 0.6325 µM). Moreover, the relative viability came to 0.741 in the experiment with Kobe2602 + Luminespib (first compound 2 µM), 0.692 in the experiment with Kobe2602 + Luminespib (first compound 6.325 µM) and 0.773 with Kobe2602 + Luminespib (first compound 20 µM).
Regarding SW 900, the relative viability in the experiment with Zosuquidar + Vorinostat (first compound 0.01 µM) worked out at 0.431; with Zosuquidar + Vorinostat (first compound 0.03162 µM), 0.464; in the experiment with Zosuquidar + Vorinostat (first compound 0.3162 µM), 0.567; with Zosuquidar + Vorinostat (first compound 1 µM), 0.527; in experiment [1] (first compound 0.02 µM), 0.521; in experiment [1] (first compound 0.06325 µM) it was 0.678. For the same cell line, the relative viability in experiment [1] (first compound 0.2 µM) is 0.411; in experiment [1] (first compound 0.6325 µM), 0.515; in experiment [1] (first compound 2 µM) it was 0.464; with Kobe2602 + Luminespib (first compound 0.2 µM), 0.164; with Kobe2602 + Luminespib (first compound 0.6325 µM) it was 0.185; in the experiment with Kobe2602 + Luminespib (first compound 2 µM), 0.191. Further, the relative viability with Kobe2602 + Luminespib (first compound 6.325 µM) is 0.166; in the experiment with Kobe2602 + Luminespib (first compound 20 µM) it was 0.199.

The values above are taken from the supplement of paper PMC10307832.
